Experimental data published in US10399989B2, “Pyrazolopyrimidine derivatives as BTK inhibitors for the treatment of cancer” (Loxo Oncology, Inc., priority 2016, dated 2019).
Where two headings read alike, the source gives them in different places.

Tests used:
EGFR = EGFR (Homo sapiens (Human), UniProt P00533); experiment: EGFR binding affinity (TR-FRET, LanthaScreen); conditions: 5 h incubation
Experimental: EGFR binding affinity was determined using a time-resolved fluorescence resonance energy transfer (TR-FRET) methodology. 2.5 nM Recombinant EGFR, varying concentrations of inhibitor, 2 nM LanthaScreen™ Eu anti-GST Antibody and 3 nM Kinase Tracer 199 was incubated in 1× LanthaScreen™ Kinase Buffer A for 5 h. Recombinant EGFR and all LanthaScreen™ components were purchased from Invitrogen. Measurements were performed in a reaction volume of 30 μL using half-area 96-well assay plates. The TR-FRET signal was read on a plate reader with an excitation wavelength of 340 nm and detection wavelengths of 615 and 665 nm. Binding affinity was determined for each compound by measuring TR-FRET signal at various concentrations of compound and plotting the relative fluorescence units against the inhibitor concentration to estimate the IC50 from log [Inhibitor] vs response using the Variable Slope model in Graphpad prism from Graphpad software (SanDiego, Calif.).

BTK^C481S = BTK^C481S (Homo sapiens (Human), UniProt Q06187, C481S); experiment: BTK^C481S binding affinity (TR-FRET, LanthaScreen); conditions: 5 h incubation
Sequence of BTK^C481S (Q06187 whole entry C481S): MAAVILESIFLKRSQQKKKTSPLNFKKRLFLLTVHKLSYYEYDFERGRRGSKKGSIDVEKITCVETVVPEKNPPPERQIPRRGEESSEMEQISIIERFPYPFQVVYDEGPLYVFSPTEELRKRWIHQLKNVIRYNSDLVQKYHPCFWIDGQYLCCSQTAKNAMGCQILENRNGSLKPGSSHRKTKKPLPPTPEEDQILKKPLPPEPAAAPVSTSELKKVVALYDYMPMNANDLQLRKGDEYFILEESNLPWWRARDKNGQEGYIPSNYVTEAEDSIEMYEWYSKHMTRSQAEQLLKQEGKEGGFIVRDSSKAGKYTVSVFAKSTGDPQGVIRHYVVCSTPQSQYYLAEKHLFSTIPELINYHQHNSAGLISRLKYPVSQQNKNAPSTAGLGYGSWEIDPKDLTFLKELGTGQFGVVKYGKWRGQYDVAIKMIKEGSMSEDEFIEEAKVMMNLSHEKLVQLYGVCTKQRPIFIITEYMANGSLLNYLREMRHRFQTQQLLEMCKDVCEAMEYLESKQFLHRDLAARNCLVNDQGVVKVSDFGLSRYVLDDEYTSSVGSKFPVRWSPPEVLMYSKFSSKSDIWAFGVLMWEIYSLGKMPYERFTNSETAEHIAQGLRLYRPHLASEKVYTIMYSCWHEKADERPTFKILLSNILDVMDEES
Experimental: (§1) BTK^C481S binding affinity of each compound tested was determined using a time-resolved fluorescence resonance energy transfer (TR-FRET) methodology. 5 nM Recombinant […] kinase, varying concentrations of inhibitor, 2 nM LanthaScreen™ Eu anti-His Antibody and 30 nM Kinase Tracer 236 was incubated in 1× LanthaScreen™ Kinase Buffer A for 5 h. Recombinant BTK^C481S kinase was purchased from SignalChem and all LanthaScreen™ components were purchased from Invitrogen. Measurements were performed in a reaction volume of 30 μL using half-area 96-well assay plates. The TR-FRET signal was read on a plate reader with an excitation wavelength of 340 nm and detection wavelengths of 615 and 665 nm. Binding affinity was determined for each compound by measuring TR-FRET signal at various concentrations of compound and plotting the relative fluorescence units against the inhibitor concentration to estimate the IC50 from log [Inhibitor] vs response using the Variable Slope model in Graphpad prism from Graphpad software (SanDiego, Calif.).

BTK^WT = BTK^WT (Homo sapiens (Human), UniProt Q06187); experiment: BTK^WT binding affinity (TR-FRET, LanthaScreen)
Sequence of BTK^WT (Q06187 whole entry): as the sequence (Q06187 whole entry C481S) above, with S481C counted along it
Experimental: as §1, with “BTK^WT binding” for “BTK^C481S binding”, “methodology. 2.5” for “methodology. 5”, “and 15” for “and 30”, “Recombinant BTK” for “Recombinant BTK^C481S”, “kinase” for “kinase was purchased from SignalChem”

[1] = test system: OCI-Ly10 human DLBCL cells; experiment: OCI-Ly10 anti-proliferative activity (Resazurin, 72 h); format: cell-based; conditions: read-out: Proliferation OCI-Ly10-IC50
Experimental: Compounds were assayed for effects on the growth of OCI-Ly10 human DLBCL cells that are dependent on NFκB signalling. OCI-Ly10 cells were grown in suspension in T225 flasks, centrifuged and re-suspended in 2.5% FBS containing media. Cells were then plated at 7.5×10^3 cells per well in 96-well plates in varying concentrations of compound and incubated for 72 h at 37° C. An additional plate of cells to be used as the Day 0 read was seeded without compound addition, Resazurin was added to each well, incubated for 5 h and the fluorescence measured at 590 nm. After 72 h of compound treatment, Resazurin was added to each well of the compound treated plates, incubated for 5 h and the fluorescence measured at 590 nm. The IC50 was then calculated by subtracting the average Day 0 value from each well value from the treated plates, each treatment was then calculated as a percentage of the DMSO control and the percentages plotted against the inhibitor concentration to estimate the IC50 from log [Inhibitor] vs response using the Variable Slope model in Graphpad prism from Graphpad software (SanDiego, Calif.).

[2] = TR-FRET binding, 5 h incubation, read-out: BTK^WT IC50
[3] = Table 6, numeric values, read-out: BTK Binding IC50

Sequence of EGFR (P00533 25-1210): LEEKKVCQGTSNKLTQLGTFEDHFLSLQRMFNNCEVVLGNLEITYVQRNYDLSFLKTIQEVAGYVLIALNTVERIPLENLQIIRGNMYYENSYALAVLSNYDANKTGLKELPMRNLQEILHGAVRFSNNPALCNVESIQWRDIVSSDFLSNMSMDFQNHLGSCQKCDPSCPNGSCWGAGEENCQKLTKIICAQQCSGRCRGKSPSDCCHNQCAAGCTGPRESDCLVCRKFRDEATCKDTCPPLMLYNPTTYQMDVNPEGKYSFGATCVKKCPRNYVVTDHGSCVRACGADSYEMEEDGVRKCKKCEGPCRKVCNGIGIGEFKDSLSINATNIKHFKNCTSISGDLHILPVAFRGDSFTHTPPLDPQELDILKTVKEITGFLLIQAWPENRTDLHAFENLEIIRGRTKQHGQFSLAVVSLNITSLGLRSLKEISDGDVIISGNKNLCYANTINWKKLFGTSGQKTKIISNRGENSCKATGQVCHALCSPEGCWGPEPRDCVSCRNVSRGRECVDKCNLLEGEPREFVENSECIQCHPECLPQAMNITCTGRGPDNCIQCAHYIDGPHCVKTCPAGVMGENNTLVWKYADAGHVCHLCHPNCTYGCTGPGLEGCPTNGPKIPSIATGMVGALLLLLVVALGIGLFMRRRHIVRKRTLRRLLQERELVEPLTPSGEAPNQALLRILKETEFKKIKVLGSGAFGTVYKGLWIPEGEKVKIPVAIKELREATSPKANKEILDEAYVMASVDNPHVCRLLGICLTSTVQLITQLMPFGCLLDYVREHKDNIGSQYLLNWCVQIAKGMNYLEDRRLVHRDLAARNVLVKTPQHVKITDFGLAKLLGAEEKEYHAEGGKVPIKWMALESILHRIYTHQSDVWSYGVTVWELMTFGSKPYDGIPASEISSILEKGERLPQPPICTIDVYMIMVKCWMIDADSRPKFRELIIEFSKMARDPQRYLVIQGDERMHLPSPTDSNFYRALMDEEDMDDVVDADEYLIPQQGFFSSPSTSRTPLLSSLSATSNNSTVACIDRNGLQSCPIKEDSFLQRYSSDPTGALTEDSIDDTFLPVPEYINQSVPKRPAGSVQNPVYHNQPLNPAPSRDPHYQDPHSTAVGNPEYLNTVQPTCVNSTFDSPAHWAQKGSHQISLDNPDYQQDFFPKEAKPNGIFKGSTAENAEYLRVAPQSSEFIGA

`COc1ccccc1C(=O)NCc1ccc(-c2nn(C3CCC(C(=O)N(C)C)CC3)c3ncnc(N)c23)cc1` (single isomer, unassigned; isomer 1) [33-isomer 1] gave an IC50 (EGFR) of 0.1 to 1 µM, an IC50 (BTK^C481S) of at most 0.01 µM and an IC50 (BTK^WT; [2]) of at most 0.01 µM. The IC50 [1] was 0.01 to 0.1 µM.

`CCO[C@H]1C=C[C@H](n2nc(-c3ccc(CNC(=O)c4ccccc4OC)cc3)c3c(N)ncnc32)C1` [Example 55, N-[(4-{4-amino-1-[(1R,4R)-4-ethoxycyclopent-2-en-1-yl]-1H-pyrazolo[3,4-d]pyrimidin-3-yl}phenyl)methyl]-2-methoxybenzamide] showed an IC50 (EGFR) of 1 to 10 µM, an IC50 (BTK^C481S) of 0.01 to 0.1 µM and an IC50 (BTK^WT; [2]) of 0.01 to 0.1 µM. For the same molecule, the IC50 ([1]; Homo sapiens, OCI-Ly10, 72 h) was 0.1 to 1 µM.

Molecule `COc1ccccc1C(=O)NCc1ccc(-c2nn(C3CCC(C)(O)CC3)c3ncnc(N)c23)cc1` (single isomer, unassigned) [Example 92, N-[[4-[4-Amino-1-(4-hydroxy-4-methyl-cyclohexyl)pyrazolo[3,4-d]pyrimidin-3-yl]phenyl]methyl]-2-methoxy-benzamide] has an IC50 (EGFR) of 0.1 to 1 µM, an IC50 (BTK^C481S) of at most 0.01 µM and an IC50 (BTK^WT; [2]) of at most 0.01 µM. It also gave an IC50 [1] of 0.01 to 0.1 µM.

Work on `COc1ccccc1C(=O)NCc1ccc(-c2nn([C@H]3C=C[C@@H](OC(=O)C(C)(C)C)C3)c3ncnc(N)c23)cc1` [Example 48, [(1S,4R)-4-[4-amino-3-[4-[[(2-methoxybenzoyl)amino]methyl]phenyl]pyrazolo[3,4-d]pyrimidin-1-yl]cyclopent-2-en-1-yl] 2,2-dimethylpropanoate] yielded an IC50 (EGFR) of 1 to 10 µM, an IC50 (BTK^C481S) of at most 0.01 µM and an IC50 (BTK^WT; [2]) of 0.01 to 0.1 µM. For the same molecule, the IC50 ([1]; Homo sapiens, OCI-Ly10, 72 h) was 0.1 to 1 µM.

Work on `COc1ccccc1C(=O)NCc1ccc(-c2nn([C@@H]3C=C[C@H](O)C3)c3ncnc(N)c23)cc1` [Example 44, N-[[4-[4-amino-1-[(1S,4R)-4-hydroxycyclopent-2-en-1-yl]pyrazolo[3,4-d]pyrimidin-3-yl]phenyl]methyl]-2-methoxy-benzamide] yielded an IC50 (EGFR) of 1 to 10 µM, an IC50 (BTK^C481S) of at most 0.01 µM and an IC50 (BTK^WT; [2]) of at most 0.01 µM. For the same molecule, the IC50 ([1]; Homo sapiens, OCI-Ly10, 72 h) was 0.1 to 1 µM.

Molecule `COc1ccc(F)cc1C(=O)NCc1ccc(-c2nn(C(C)(C)C)c3ncnc(N)c23)cc1` [Example 43, N-[[4-(4-amino-1-tert-butyl-pyrazolo[3,4-d]pyrimidin-3-yl)phenyl]methyl]-5-fluoro-2-methoxy-benzamide] has an IC50 (EGFR) of 0.1 to 1 µM, an IC50 (BTK^C481S) of at most 0.01 µM and an IC50 (BTK^WT; [2]) of at most 0.01 µM. For the same molecule, the IC50 ([1]; Homo sapiens, OCI-Ly10, 72 h) was 0.01 to 0.1 µM.

`COc1ccccc1C(=O)NCc1ccc(-c2nn(C3CCC(=O)C3)c3ncnc(N)c23)cc1` (stereo not drawn) [Example 21, N-[[4-[4-amino-1-(3-oxocyclopentyl)pyrazolo[3,4-d]pyrimidin-3-yl]phenyl]methyl]-2-methoxy-benzamide] gave an IC50 (EGFR) of 1 to 10 µM, an IC50 (BTK^C481S) of at most 0.01 µM and an IC50 (BTK^WT; [2]) of at most 0.01 µM. For the same molecule, the IC50 ([1]; Homo sapiens, OCI-Ly10, 72 h) was 0.1 to 1 µM.

`COc1ccccc1C(=O)NCc1ccc(-c2nn([C@H]3C=C[C@@H](O)C3)c3ncnc(N)c23)cc1` [Example 47, N-[[4-[4-amino-1-[(1R,4S)-4-hydroxycyclopent-2-en-1-yl]pyrazolo[3,4-d]pyrimidin-3-yl]phenyl]methyl]-2-methoxy-benzamide] showed an IC50 (EGFR) of 0.1 to 1 µM, an IC50 (BTK^C481S) of at most 0.01 µM and an IC50 (BTK^WT; [2]) of at most 0.01 µM. It also gave an IC50 ([1]; Homo sapiens, OCI-Ly10, 72 h) of 0.1 to 1 µM.

Molecule `COc1ccccc1C(=O)NCc1ccc(-c2nn(C3CCCC3)c3ncnc(N)c23)cc1C` [Example 89, N-[[4-(4-Amino-1-cyclopentyl-pyrazolo[3,4-d]pyrimidin-3-yl)-2-methyl-phenyl]methyl]-2-methoxy-benzamide] has an IC50 (EGFR) of 0.1 to 1 µM, an IC50 (BTK^C481S) of at most 0.01 µM and an IC50 (BTK^WT; [2]) of at most 0.01 µM. The IC50 ([1]; Homo sapiens, OCI-Ly10, 72 h) was 0.1 to 1 µM.

Work on `COc1ccc(C)cc1C(=O)NCc1ccc(-c2nn(C3CCCC3)c3ncnc(N)c23)cc1` [Example 12, N-[[4-(4-amino-1-cyclopentyl-pyrazolo[3,4-d]pyrimidin-3-yl)phenyl]methyl]-2-methoxy-5-methyl-benzamide] yielded an IC50 (EGFR) of 1 to 10 µM, an IC50 (BTK^C481S) of at most 0.01 µM and an IC50 (BTK^WT; [2]) of at most 0.01 µM. The IC50 ([1]; Homo sapiens, OCI-Ly10, 72 h) was 0.01 to 0.1 µM.

`COc1ccccc1C(=O)NCc1ccc(-c2nn(C3CCC(C)C3)c3ncnc(N)c23)cc1` (stereo not drawn) [Example 62, N-[[4-[4-amino-1-(3-methylcyclopentyl)pyrazolo[3,4-d]pyrimidin-3-yl]phenyl]methyl]-2-methoxy-benzamide] was tested, and the IC50 (EGFR) was 0.1 to 1 µM, the IC50 (BTK^C481S) was at most 0.01 µM and the IC50 (BTK^WT; [2]) was at most 0.01 µM. For the same molecule, the IC50 ([1]; Homo sapiens, OCI-Ly10, 72 h) was 0.01 to 0.1 µM.

In the case of `CCOc1ccccc1C(=O)NCc1ccc(-c2nn(C3CCCC3)c3ncnc(N)c23)cc1` [Example 7, N-[[4-(4-amino-1-cyclopentyl-pyrazolo[3,4-d]pyrimidin-3-yl)phenyl]methyl]-2-ethoxy-benzamide], the IC50 (EGFR) is reported as 1 to 10 µM, the IC50 (BTK^C481S) is reported as at most 0.01 µM and the IC50 (BTK^WT; [2]) is reported as at most 0.01 µM. For the same molecule, the IC50 ([1]; Homo sapiens, OCI-Ly10, 72 h) was 0.1 to 1 µM.

With `COc1ccccc1C(=O)NCc1ccc(-c2nn(C3CCCC(O)C3)c3ncnc(N)c23)cc1` (stereo not drawn) [Example 37, N-[[4-[4-amino-1-(3-hydroxycyclohexyl)pyrazolo[3,4-d]pyrimidin-3-yl]phenyl]methyl]-2-methoxy-benzamide] the IC50 (EGFR) was 0.1 to 1 µM, the IC50 (BTK^C481S) was at most 0.01 µM and the IC50 (BTK^WT; [2]) was at most 0.01 µM. The IC50 (BTK^WT; [3]) was 0.0017 µM and the IC50 ([1]; Homo sapiens, OCI-Ly10, 72 h) was 0.1 to 1 µM.

With `COc1ccc2ccccc2c1C(=O)NCc1ccc(-c2nn(C3CCCC3)c3ncnc(N)c23)cc1` [Example 68, N-[[4-(4-amino-1-cyclopentyl-pyrazolo[3,4-d]pyrimidin-3-yl)phenyl]methyl]-2-methoxy-naphthalene-1-carboxamide] the IC50 (EGFR) was 1 to 10 µM, the IC50 (BTK^C481S) was 0.1 to 1 µM and the IC50 (BTK^WT; [2]) was 0.1 to 1 µM. The IC50 ([1]; Homo sapiens, OCI-Ly10, 72 h) was 1 to 10 µM.

Work on `COc1ccc(F)cc1C(=O)NCc1ccc(-c2nn([C@H]3C=C[C@H](O)C3)c3ncnc(N)c23)cc1` [Example 53, N-[[4-[4-Amino-1-[(1R,4R)-4-hydroxycyclopent-2-en-1-yl]pyrazolo[3,4-d]pyrimidin-3-yl]phenyl]methyl]-5-fluoro-2-methoxy-benzamide] yielded an IC50 (EGFR) of 1 to 10 µM, an IC50 (BTK^C481S) of at most 0.01 µM and an IC50 (BTK^WT; [2]) of 0.01 to 0.1 µM. The IC50 ([1]; Homo sapiens, OCI-Ly10, 72 h) was 1 to 10 µM.

With `COc1ccccc1C(=O)NCc1ccc(-c2nn([C@@H]3C=C[C@@H](O)C3)c3ncnc(N)c23)cc1` [Example 50, N-[[4-[4-amino-1-[(1S,4S)-4-hydroxycyclopent-2-en-1-yl]pyrazolo[3,4-d]pyrimidin-3-yl]phenyl]methyl]-2-methoxy-benzamide] the IC50 (EGFR) was 0.1 to 1 µM, the IC50 (BTK^C481S) was at most 0.01 µM and the IC50 (BTK^WT; [2]) was at most 0.01 µM. The IC50 ([1]; Homo sapiens, OCI-Ly10, 72 h) was 0.1 to 1 µM.

`COc1ccc(F)cc1C(=O)NCc1ccc(-c2nn(C3CCCC3)c3ncnc(N)c23)cc1` [Example 4, N-[[4-(4-Amino-1-cyclopentyl-pyrazolo[3,4-d]pyrimidin-3-yl)phenyl]methyl]-5-fluoro-2-methoxy-benzamide] was tested, and the IC50 (EGFR) was 0.1 to 1 µM, the IC50 (BTK^C481S) was at most 0.01 µM and the IC50 (BTK^WT; [2]) was at most 0.01 µM. For the same molecule, the IC50 (BTK^WT; [3]) was 0.0008 µM and the IC50 ([1]; Homo sapiens, OCI-Ly10, 72 h) was 0.01 to 0.1 µM.

`COc1ccccc1C(=O)NCc1ccc(-c2nn([C@H]3C=C[C@H](O)C3)c3ncnc(N)c23)cc1` [Example 36, N-[[4-[4-amino-1-[(1R,4R)-4-hydroxycyclopent-2-en-1-yl]pyrazolo[3,4-d]pyrimidin-3-yl]phenyl]methyl]-2-methoxy-benzamide] gave an IC50 (EGFR) of 0.1 to 1 µM, an IC50 (BTK^C481S) of at most 0.01 µM and an IC50 (BTK^WT; [2]) of at most 0.01 µM. It also gave an IC50 ([1]; Homo sapiens, OCI-Ly10, 72 h) of 0.1 to 1 µM.

For `COc1ccccc1C(=O)NCc1ccc(-c2nn(C3CCCO3)c3ncnc(N)c23)cc1` (stereo not drawn) [Example 5, N-[[4-(4-amino-1-tetrahydrofuran-2-yl-pyrazolo[3,4-d]pyrimidin-3-yl)phenyl]methyl]-2-methoxy-benzamide], the IC50 (EGFR) was 1 to 10 µM, the IC50 (BTK^C481S) was 0.01 to 0.1 µM and the IC50 (BTK^WT; [2]) was 0.01 to 0.1 µM. For the same molecule, the IC50 ([1]; Homo sapiens, OCI-Ly10, 72 h) was 0.1 to 1 µM.
